Experimental findings from patent US20060110401A1, “Mixture of peptides from c and ns3 proteins of the hepatitis c virus and applications thereof” (priority 2002, published 2006) are described below.

Structures are written as SMILES. Where two headings read alike, the source gives them in different places. Residues, ends and D or L forms follow the SMILES beside them.

For one test, the system named is DRB5. Put plainly: DRB5.
Another test has as its target T1, HLA-DRB4 (DRB4*0101) (Homo sapiens, UniProt P01903+P13762, G164S).
T1 construct: endogenous in cells; host or cells: homozygous EBV-transformed human B lymphocyte lines; immunopurified with antibody L243
As to the kind of experiment: biochemical. The class given is binding. The settings on record: read-out: binds with good affinity to DRB4.

The target in another test is T2, HLA-DRB5 (DRB5*0101) (Homo sapiens, UniProt P01903+Q30154).
T2 construct: endogenous in cells; host or cells: homozygous EBV-transformed human B lymphocyte lines; immunopurified with antibody L243
Put plainly: biochemical. The class given is binding. The settings on record: read-out: binds with good affinity to DRB5.

The subject of a further test is DP401. As to the kind of experiment: DP401.
In another test the target is T3, HLA-DRB3 (DRB3*0101) (Homo sapiens, UniProt P01903+P79483).
T3 construct: endogenous in cells; host or cells: homozygous EBV-transformed human B lymphocyte lines; immunopurified with antibody L243
As to the kind of experiment: HLA II/peptide binding assay, HLA-DRB3. The settings on record: read-out: binds with good affinity to DRB3.

A further test has as its target HLA-DR11 (DRB1*1101) (Homo sapiens, UniProt P01903+P01911, A100R/A169T/A87E/I96F/K41T/L162R/M171V/P40S/Q125H/Q178H/Q39Y/Q99D/R42S/S66Y/T262R/V115G/W38E). As to the kind of experiment: biochemical. The settings on record: read-out: binds with good affinity to DR11. The class given is binding.
The next test concerns the target HLA-DR7 (DRB1*0701) (Homo sapiens, UniProt P01903+P01911, A100R/A102G/A103Q/D57E/D86V/E43K/F76Y/K127E/L162R/M171V/P40G/Q125H/Q99D/R33Q/R42Y/R54Q/S133A/S66F/T210M/V115G/Y107V/Y59L/Y89S). As to the kind of experiment: biochemical. The settings on record: read-out: binds with good affinity to DR7. Format: binding.
In a further test the test system is DP402. As to the kind of experiment: DP402.
The subject of another test is DRB3. Put plainly: DRB3.
The target of a further test is T4, HLA-DR15 (DRB1*1501) (Homo sapiens, UniProt P01903+P01911).
T4 construct: endogenous in cells; host or cells: homozygous EBV-transformed human B lymphocyte lines; immunopurified with antibody L243
As to the kind of experiment: biochemical. Format: binding. The settings on record: DRB1*1501; read-out: binds with good affinity to DR15.

For a further test, the system named is DR15. Put plainly: DR15.
The next test deals with T5, HLA-DR1 (DRB1*0101) (Homo sapiens, UniProt P01903+P01911, A100R/D57E/F55L/F60I/F76Y/I96L/L162R/M171V/P40L/Q125E/R42F/V115G/Y59C).
T5 construct: endogenous in cells; host or cells: homozygous EBV-transformed human B lymphocyte lines; immunopurified with antibody L243
Put plainly: biochemical. The settings on record: for IC50: DRB1*0101. Format: binding.

The next test deals with DR11. As to the kind of experiment: DR11. An excerpt: (§1) Table printed on a drawing sheet, Figure 2
Where the first naming reader finds the target: head: DR11

The next test concerns DR7. As to the kind of experiment: DR7.
In a further test the target is HLA-DR13 (DRB1*1301) (Homo sapiens, UniProt P01903+P01911, A100E/A169T/K41T/L162R/M171V/P40S/Q125H/Q178H/Q39Y/Q99D/R42S/S66N/T262R/W38E/Y61H). Put plainly: biochemical. The class given is binding. The settings on record: read-out: binds with good affinity to DR13.
A further test addresses T6, HLA-DR4 (DRB1*0401) (Homo sapiens, UniProt P01903+P01911, A100K/A169T/F76Y/I96L/K127E/L162R/M171V/N62H/P40V/Q125Y/R42H/S133A/S149N/S66Y/V115G/V209L/W38E).
T6 construct: endogenous in cells; host or cells: homozygous EBV-transformed human B lymphocyte lines; immunopurified with antibody L243
As to the kind of experiment: biochemical. The settings on record: read-out: binds with good affinity to DR4. The class given is binding.

The test system of another test is DR13. As to the kind of experiment: DR13.
Description: as §1
Where the first naming reader finds the target: head: DR13

Another test deals with DR4. Put plainly: DR4.
A further test deals with DR1. Put plainly: DR1.
The target of the next test is T7, HLA-DR3 (DRB1*0301) (Homo sapiens, UniProt P01903+P01911, A100K/A102G/A103R/A169T/F55Y/I96L/K41T/L162R/M171V/P40S/Q125H/Q178H/Q39Y/R42S/S66N/T106N/T262R/W38E/Y61H).
T7 construct: endogenous in cells; host or cells: homozygous EBV-transformed human B lymphocyte lines; immunopurified with antibody L243
Put plainly: biochemical. Format: binding. The settings on record: read-out: binds with good affinity to DR3.

In a further test the target is HLA-DP402 (DPB1*0402) (Homo sapiens, UniProt P04440+P20036, A65V/A84D/A85E/L207M). As to the kind of experiment: biochemical. Format: binding. The settings on record: DP*0402; read-out: binds with good affinity to DP402.
Another test deals with DRB4. As to the kind of experiment: DRB4.
Description: as §1
Where the first naming reader finds the target: head: DRB4

Test [1] has as its system T lymphocytes derived from PBMCs from patients chronically infected with HCV. Format: cell-based, human. The settings on record: supernatant 48 h, —: not detected.
Another test deals with HLA-DP401 (DPB1*0401) (Homo sapiens, UniProt P04440+P20036). Put plainly: biochemical. Format: binding. The settings on record: DP*0401; read-out: binds with good affinity to DP401.
The next test concerns DR3. Put plainly: DR3.
Description: as §1
Where the first naming reader finds the target: head: DR3

Where [2] appears, read: read-out: binds with good affinity to DR1.

HLA-DR11 (DRB1*1101), sequence (P01903 26-254 limits assumed, other chains not shown): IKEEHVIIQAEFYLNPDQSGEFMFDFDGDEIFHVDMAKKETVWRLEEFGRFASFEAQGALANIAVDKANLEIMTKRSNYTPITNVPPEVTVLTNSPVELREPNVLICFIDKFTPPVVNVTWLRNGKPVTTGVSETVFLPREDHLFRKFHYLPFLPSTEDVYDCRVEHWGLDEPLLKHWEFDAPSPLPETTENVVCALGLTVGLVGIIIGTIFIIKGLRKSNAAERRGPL

Regarding `CC[C@H](C)[C@H](NC(=O)CNC(=O)[C@@H]1CCCN1C(=O)[C@@H](N)CCCCN)C(=O)N[C@@H](Cc1ccc(O)cc1)C(=O)N[C@@H](CCCNC(=N)N)C(=O)N[C@@H](Cc1ccccc1)C(=O)N[C@H](C(=O)N[C@@H](C)C(=O)N1CCC[C@H]1C(=O)NCC(=O)N[C@@H](CCC(=O)O)C(=O)N[C@@H](CCCNC(=N)N)C(=O)N1CCC[C@H]1C(=O)N[C@@H](CO)C(=O)NCC(=O)N[C@@H](CCSC)C(=O)N[C@@H](Cc1ccccc1)C(=O)N[C@@H](CC(=O)O)C(=O)O)C(C)C` [27N 1495-1513] (H-KPGIYRFVAPGERPSGMFD-OH; N-terminus and C-terminus assumed), the IC50 in the test on DRB5 is 0.002 µM; on HLA-DRB4 (DRB4*0101), below 1 µM; at HLA-DRB5 (DRB5*0101), below 1 µM; with DP401 it was above 100 µM; at HLA-DRB3 (DRB3*0101) it was below 1 µM; on HLA-DR11 (DRB1*1101) it was below 1 µM. For the same compound, the IC50 on HLA-DR7 (DRB1*0701) was below 1 µM; with DP402, above 100 µM; in the test on DRB3, 40 µM; on HLA-DR15 (DRB1*1501), below 1 µM; in the test on DR15, 0.15 µM; on HLA-DR1 (DRB1*0101) (setting [2]), below 1 µM. Also, the IC50 in the test with DR11 came to 0.175 µM; in the test on DR7 it was 0.313 µM.
Regarding `CC[C@H](C)[C@H](NC(=O)[C@@H](NC(=O)[C@H](Cc1ccccc1)NC(=O)[C@@H](NC(=O)[C@@H]1CCCN1C(=O)[C@H](CC(=O)O)NC(=O)[C@H](CC(C)C)NC(=O)[C@H](CO)NC(=O)[C@H](Cc1ccccc1)NC(=O)[C@H](CC(=O)O)NC(=O)[C@@H](NC(=O)[C@@H](NC(=O)[C@H](CCC(N)=O)NC(=O)[C@@H](NC(=O)[C@@H](NC(=O)[C@H](C)NC(=O)[C@@H](N)[C@@H](C)O)C(C)C)[C@@H](C)O)[C@@H](C)O)C(C)C)[C@@H](C)O)[C@@H](C)O)C(=O)N[C@@H](CCC(=O)O)C(=O)N[C@H](C(=O)N[C@H](C(=O)N[C@H](C(=O)N[C@@H](CC(C)C)C(=O)N1CCC[C@H]1C(=O)N[C@@H](CCC(N)=O)C(=O)N[C@@H](CC(=O)O)C(=O)N[C@@H](C)C(=O)O)[C@@H](C)O)[C@@H](C)CC)[C@@H](C)O` [26N 1456-1481], the IC50 on HLA-DRB4 (DRB4*0101), on HLA-DR13 (DRB1*1301), on HLA-DRB5 (DRB5*0101), at HLA-DRB3 (DRB3*0101), on HLA-DR4 (DRB1*0401) and at HLA-DR11 (DRB1*1101) was below 1 µM in each case. The IC50 was below 1 µM on HLA-DR7 (DRB1*0701); 0.04 µM in the test with DRB3; below 1 µM at HLA-DR15 (DRB1*1501); 0.3 µM in the test with DR13; below 1 µM at HLA-DR1 (DRB1*0101) (setting [2]); 0.008 µM with DR4. Besides, the IC50 with DR7 was 0.02 µM; in the test with DR1, 0.002 µM; on HLA-DR3 (DRB1*0301), below 1 µM.
As for `CSCC[C@H](NC(=O)[C@H](Cc1ccc(O)cc1)NC(=O)[C@H](C)NC(=O)[C@H](CCCNC(=N)N)NC(=O)[C@H](CC(C)C)NC(=O)[C@H](CCCNC(=N)N)NC(=O)[C@@H](NC(=O)[C@@H](NC(=O)[C@@H](NC(=O)[C@H](CCC(=O)O)NC(=O)[C@H](C)NC(=O)[C@@H]1CCCN1C(=O)[C@@H](NC(=O)[C@H](CC(C)C)NC(=O)[C@H](CCC(=O)O)NC(=O)[C@H](Cc1ccc(O)cc1)NC(=O)[C@H](Cc1c[nH]c2ccccc12)NC(=O)[C@H](C)NC(=O)[C@H](C)NC(=O)CN)[C@@H](C)O)[C@@H](C)O)[C@@H](C)O)C(C)C)C(=O)N[C@@H](CC(N)=O)C(=O)N[C@H](C(=O)N1CCC[C@H]1C(=O)NCC(=O)N[C@@H](CC(C)C)C(=O)N1CCC[C@H]1C(=O)N[C@H](C(=O)N[C@@H](C)C(=O)N[C@@H](CCC(N)=O)C(=O)N[C@@H](CC(=O)O)C(=O)O)C(C)C)[C@@H](C)O` [28N 1524-1553], the IC50 was 0.02 µM in the test with DRB5; below 1 µM on HLA-DRB4 (DRB4*0101); below 1 µM at HLA-DRB5 (DRB5*0101); below 1 µM on HLA-DRB3 (DRB3*0101); below 1 µM at HLA-DR4 (DRB1*0401); below 1 µM on HLA-DR11 (DRB1*1101). Besides, the IC50 on HLA-DR7 (DRB1*0701) is below 1 µM; at HLA-DR15 (DRB1*1501) it was below 1 µM; with DR15 it was 0.001 µM; in the test on DR13, 10 µM; at HLA-DR1 (DRB1*0101) (competition with biotinylated tracer HA 306-318, read-out: IC50, binding to HLA-DR1), 0.002 µM; at HLA-DR1 (DRB1*0101) (setting [2]) it was below 1 µM. In addition, the IC50 was below 1 µM on HLA-DP402 (DPB1*0402), 0.005 µM in the test on DR7 and 0.03 µM in the test with DRB4. The “affinity for HLA-DR1 (in words)” value on HLA-DR1 (DRB1*0101) (legend of FIG. 4) is recorded as “high affinity”. For the same compound, the IL2 entry in test [1] (patient 067) is reported as “— 76 pg/ml”. Moreover, the IL10 was found to be 86 pg/mL in test [1] (patient 067), 21 pg/mL in test [1] (patient 078) and 67 pg/mL in test [1] (patient 829). For the same compound, in [1] (patient 093), the IL4 result is on record as “— 11 pg/ml”.
Take `CC(C)C[C@H](NC(=O)[C@H](CCCNC(=N)N)NC(=O)[C@@H]1CCCN1C(=O)CNC(=O)[C@H](CCCNC(=N)N)NC(=O)[C@H](CCCNC(=N)N)NC(=O)[C@@H]1CCCN1C(=O)[C@H](CC(C)C)NC(=O)[C@H](CC(C)C)NC(=O)[C@H](Cc1ccc(O)cc1)NC(=O)[C@@H](NC(=O)CNC(=O)CNC(=O)[C@@H](N)C(C)C)C(C)C)C(=O)NCC(=O)N[C@H](C(=O)N[C@@H](CCCNC(=N)N)C(=O)N[C@@H](C)C(=O)N[C@H](C(=O)N[C@@H](CCCNC(=N)N)C(=O)N[C@@H](CCCCN)C(=O)N[C@H](C(=O)N[C@@H](CO)C(=O)N[C@@H](CCC(=O)O)C(=O)N[C@@H](CCCNC(=N)N)C(=O)N[C@@H](CO)C(=O)N[C@@H](CCC(N)=O)C(=O)O)[C@@H](C)O)[C@@H](C)O)C(C)C` [2C 31-57]: the IC50 was 0.003 µM in the test on DRB5; below 1 µM on HLA-DP401 (DPB1*0401); above 100 µM in the test with DP401; above 100 µM in the test with DR3; above 100 µM with DP402; above 100 µM with DRB3. In addition, the IC50 was below 1 µM at HLA-DP402 (DPB1*0402) and 0.5 µM in the test with DR7.
